The values below come from ChEMBL document CHEMBL4028801, “A multifactorial approach to hepatobiliary transporter assessment enables improved therapeutic compound development” (Toxicol Sci, 2013).

The target in assay [1] is ATP-binding cassette sub-family C member 3 (Homo sapiens, UniProt O15438). Description: Inhibition of human MRP3 overexpressed in Sf9 insect cell membrane vesicles assessed as uptake of [3H]-estradiol-17beta-D-glucuronide in presence of ATP and GSH measured after 10 mins by membrane vesicle transport assay. Type of assay: ADME, cell-based.
Chain of ATP-binding cassette sub-family C member 3 (O15438 whole entry): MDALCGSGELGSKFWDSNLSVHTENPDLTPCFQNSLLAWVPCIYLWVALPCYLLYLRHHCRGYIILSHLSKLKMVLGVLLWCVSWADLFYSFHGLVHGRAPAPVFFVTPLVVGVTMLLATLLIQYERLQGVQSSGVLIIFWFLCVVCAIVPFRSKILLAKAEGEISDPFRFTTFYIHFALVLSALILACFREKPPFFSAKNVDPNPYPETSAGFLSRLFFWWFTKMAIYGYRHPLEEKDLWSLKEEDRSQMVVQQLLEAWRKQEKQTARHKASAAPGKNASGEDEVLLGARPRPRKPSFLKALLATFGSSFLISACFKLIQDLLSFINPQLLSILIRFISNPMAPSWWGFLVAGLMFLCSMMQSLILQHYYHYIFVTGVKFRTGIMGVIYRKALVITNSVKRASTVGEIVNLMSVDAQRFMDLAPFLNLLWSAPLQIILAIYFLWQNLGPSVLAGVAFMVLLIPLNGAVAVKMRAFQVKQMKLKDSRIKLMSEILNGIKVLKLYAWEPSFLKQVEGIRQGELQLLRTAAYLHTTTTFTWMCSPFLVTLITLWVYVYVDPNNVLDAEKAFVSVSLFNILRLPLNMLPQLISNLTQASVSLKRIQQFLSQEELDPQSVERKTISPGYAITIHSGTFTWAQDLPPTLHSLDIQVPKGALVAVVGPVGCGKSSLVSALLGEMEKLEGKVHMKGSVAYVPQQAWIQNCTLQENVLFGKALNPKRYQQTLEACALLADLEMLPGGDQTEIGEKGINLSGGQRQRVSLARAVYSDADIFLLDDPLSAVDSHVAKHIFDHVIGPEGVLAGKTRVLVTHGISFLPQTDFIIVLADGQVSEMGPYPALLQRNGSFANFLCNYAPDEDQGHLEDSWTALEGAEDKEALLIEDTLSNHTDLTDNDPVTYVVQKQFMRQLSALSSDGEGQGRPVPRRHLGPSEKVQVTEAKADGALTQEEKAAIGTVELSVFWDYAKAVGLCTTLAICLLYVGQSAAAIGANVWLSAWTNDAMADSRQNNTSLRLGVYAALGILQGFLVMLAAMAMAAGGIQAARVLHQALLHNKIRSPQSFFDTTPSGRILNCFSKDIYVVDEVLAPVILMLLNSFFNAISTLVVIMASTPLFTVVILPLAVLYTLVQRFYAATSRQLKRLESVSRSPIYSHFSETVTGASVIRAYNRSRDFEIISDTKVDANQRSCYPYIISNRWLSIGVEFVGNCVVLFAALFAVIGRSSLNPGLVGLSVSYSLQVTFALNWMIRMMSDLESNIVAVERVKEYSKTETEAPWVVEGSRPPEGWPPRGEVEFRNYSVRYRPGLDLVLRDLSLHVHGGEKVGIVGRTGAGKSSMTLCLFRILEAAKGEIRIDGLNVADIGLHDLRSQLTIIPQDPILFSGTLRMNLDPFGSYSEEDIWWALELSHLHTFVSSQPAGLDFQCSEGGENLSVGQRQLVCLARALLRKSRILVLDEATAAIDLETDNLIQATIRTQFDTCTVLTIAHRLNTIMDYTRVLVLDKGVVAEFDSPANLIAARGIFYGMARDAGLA
In assay [2] the target is ATP-binding cassette sub-family C member 2 (Homo sapiens, UniProt Q92887). Description: Inhibition of human MRP2 overexpressed in Sf9 cell membrane vesicles assessed as uptake of [3H]-estradiol-17beta-D-glucuronide in presence of ATP and GSH measured after 20 mins by membrane vesicle transport assay.
Chain of ATP-binding cassette sub-family C member 2 (Q92887 whole entry): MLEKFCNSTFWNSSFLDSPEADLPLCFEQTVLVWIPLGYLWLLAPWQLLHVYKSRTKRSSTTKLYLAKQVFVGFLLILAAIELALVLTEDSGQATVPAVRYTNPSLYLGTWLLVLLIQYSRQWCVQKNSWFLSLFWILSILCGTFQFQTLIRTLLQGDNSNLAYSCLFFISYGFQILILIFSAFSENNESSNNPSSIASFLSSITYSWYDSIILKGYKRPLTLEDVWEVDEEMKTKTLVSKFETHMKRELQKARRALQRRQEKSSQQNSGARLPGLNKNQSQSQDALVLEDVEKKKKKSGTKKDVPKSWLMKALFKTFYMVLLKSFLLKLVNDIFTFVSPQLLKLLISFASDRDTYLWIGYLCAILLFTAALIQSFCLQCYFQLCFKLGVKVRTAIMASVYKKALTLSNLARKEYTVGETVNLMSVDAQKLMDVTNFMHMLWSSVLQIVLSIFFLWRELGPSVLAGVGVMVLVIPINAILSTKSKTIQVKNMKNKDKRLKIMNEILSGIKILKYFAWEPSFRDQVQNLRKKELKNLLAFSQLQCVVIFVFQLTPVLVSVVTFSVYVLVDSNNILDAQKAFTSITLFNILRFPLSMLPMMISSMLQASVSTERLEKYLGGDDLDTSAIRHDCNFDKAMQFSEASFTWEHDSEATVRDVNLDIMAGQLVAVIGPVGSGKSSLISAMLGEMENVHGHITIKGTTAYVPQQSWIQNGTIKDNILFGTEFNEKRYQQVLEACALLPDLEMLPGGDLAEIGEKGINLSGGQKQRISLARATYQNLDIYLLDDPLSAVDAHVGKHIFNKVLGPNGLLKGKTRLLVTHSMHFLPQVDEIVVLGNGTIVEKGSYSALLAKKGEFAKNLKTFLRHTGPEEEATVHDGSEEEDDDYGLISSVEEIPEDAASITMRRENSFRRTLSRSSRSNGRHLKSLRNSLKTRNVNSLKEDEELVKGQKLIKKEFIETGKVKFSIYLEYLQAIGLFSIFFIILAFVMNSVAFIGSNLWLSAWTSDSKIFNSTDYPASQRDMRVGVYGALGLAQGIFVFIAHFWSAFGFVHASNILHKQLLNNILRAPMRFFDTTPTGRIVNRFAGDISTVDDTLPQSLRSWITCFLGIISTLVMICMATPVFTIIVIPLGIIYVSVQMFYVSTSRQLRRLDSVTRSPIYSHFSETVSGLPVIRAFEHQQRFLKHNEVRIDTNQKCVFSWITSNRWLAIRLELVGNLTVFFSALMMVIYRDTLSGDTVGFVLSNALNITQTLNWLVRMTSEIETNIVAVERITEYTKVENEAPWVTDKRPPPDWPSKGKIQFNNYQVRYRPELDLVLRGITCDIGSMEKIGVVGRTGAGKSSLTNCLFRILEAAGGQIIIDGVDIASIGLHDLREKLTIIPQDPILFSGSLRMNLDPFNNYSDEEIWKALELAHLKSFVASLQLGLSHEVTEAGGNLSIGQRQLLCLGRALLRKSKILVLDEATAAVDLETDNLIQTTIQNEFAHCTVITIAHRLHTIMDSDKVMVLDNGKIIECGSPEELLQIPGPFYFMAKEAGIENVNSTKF
For assay [3], the target named is T1, ATP-binding cassette sub-family C member 4 (Homo sapiens, UniProt O15439).
T1 sequence (O15439 whole entry): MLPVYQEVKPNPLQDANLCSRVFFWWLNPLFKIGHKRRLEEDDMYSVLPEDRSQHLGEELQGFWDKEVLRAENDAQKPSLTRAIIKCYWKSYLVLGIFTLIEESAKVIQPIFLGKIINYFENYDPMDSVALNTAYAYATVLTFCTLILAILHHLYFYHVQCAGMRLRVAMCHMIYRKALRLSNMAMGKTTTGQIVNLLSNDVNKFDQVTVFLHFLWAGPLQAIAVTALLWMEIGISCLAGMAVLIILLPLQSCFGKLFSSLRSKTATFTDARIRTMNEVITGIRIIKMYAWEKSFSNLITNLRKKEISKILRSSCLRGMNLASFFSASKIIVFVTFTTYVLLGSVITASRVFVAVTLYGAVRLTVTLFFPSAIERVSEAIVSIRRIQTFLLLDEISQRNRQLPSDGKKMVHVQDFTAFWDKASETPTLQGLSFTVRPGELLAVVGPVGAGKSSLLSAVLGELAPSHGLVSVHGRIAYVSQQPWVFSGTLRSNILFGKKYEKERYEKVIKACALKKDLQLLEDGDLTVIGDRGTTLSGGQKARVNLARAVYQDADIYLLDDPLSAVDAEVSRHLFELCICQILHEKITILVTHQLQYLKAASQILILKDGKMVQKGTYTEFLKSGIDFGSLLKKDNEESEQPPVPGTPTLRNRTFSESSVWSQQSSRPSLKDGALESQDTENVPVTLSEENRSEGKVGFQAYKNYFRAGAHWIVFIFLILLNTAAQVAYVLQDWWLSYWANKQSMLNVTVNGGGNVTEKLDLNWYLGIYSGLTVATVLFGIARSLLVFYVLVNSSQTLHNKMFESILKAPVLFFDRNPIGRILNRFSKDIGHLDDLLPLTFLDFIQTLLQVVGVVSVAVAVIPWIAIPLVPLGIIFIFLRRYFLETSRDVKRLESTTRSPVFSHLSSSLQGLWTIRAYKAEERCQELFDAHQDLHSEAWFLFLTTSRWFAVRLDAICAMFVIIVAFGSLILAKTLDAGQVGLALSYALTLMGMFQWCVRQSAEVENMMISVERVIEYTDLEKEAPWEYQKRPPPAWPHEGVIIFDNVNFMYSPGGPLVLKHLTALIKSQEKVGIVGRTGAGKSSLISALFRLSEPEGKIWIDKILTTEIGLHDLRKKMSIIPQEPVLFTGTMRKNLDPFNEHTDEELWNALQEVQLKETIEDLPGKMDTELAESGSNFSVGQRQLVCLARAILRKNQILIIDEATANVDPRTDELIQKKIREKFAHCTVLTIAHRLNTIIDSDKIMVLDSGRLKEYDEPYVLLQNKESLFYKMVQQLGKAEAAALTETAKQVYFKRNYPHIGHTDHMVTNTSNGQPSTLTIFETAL
Put plainly: Inhibition of human MRP4 overexpressed in Sf9 cell membrane vesicles assessed as uptake of [3H]-estradiol-17beta-D-glucuronide in presence of ATP and GSH measured after 20 mins by membrane vesicle transport assay. It counts as ADME, cell-based.

Assay [4] has as its target Bile salt export pump (Homo sapiens, UniProt O95342). Put plainly: Inhibition of human BSEP overexpressed in Sf9 cell membrane vesicles assessed as uptake of [3H]-taurocholate in presence of ATP measured after 15 to 20 mins by membrane vesicle transport assay. Type of assay: ADME, cell-based.

Where a name gives a salt, the structure may show the parent alone.

Chain of Bile salt export pump (O95342 whole entry): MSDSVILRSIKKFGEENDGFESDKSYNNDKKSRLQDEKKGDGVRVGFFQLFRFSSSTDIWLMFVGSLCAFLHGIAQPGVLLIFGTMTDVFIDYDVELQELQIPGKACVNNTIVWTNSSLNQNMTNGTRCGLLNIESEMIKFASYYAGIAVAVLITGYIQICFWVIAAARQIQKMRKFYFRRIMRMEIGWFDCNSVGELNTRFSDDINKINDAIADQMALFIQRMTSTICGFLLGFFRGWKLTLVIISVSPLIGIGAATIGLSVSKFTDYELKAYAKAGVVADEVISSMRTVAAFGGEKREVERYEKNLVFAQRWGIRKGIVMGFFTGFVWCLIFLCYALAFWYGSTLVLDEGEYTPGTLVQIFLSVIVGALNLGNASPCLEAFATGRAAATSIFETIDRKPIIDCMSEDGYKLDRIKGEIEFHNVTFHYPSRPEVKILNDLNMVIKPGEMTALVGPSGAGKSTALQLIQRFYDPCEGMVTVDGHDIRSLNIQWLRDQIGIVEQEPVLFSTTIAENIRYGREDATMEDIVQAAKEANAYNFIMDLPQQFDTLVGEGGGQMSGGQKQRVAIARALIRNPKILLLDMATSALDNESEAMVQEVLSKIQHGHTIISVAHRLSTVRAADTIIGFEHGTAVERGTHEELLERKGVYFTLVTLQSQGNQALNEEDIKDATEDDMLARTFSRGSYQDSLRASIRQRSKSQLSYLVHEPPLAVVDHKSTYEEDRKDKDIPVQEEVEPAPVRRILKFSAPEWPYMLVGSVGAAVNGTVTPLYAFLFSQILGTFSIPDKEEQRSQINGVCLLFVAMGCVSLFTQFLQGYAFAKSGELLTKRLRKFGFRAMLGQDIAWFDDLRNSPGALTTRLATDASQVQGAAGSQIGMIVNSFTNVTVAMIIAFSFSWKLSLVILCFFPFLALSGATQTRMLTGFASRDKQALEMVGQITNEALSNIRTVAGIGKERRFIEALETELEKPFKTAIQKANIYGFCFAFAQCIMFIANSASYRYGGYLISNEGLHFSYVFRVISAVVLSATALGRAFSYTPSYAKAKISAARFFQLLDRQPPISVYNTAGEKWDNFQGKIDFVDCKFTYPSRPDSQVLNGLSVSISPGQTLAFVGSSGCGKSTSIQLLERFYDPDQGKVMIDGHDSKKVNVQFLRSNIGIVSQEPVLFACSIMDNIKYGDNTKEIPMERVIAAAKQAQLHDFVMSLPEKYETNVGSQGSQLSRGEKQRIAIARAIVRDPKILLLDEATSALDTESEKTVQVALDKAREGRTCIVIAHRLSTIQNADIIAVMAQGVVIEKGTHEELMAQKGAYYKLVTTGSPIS

One may read the IC50 as the point on the concentration scale where inhibition reaches its midpoint. As for `NC(=O)c1ncn([C@@H]2O[C@H](CO)[C@@H](O)[C@H]2O)n1` [RIBAVIRIN], the IC50 in assay [1], in assay [2], in assay [3] and in assay [4] was over 133 µM each time.
For the compound `CC(=O)Oc1ccc(C(c2ccc(OC(C)=O)cc2)c2ccccn2)cc1` [BISACODYL], the IC50 in assay [1], in assay [2], in assay [3] and in assay [4] was over 133 µM in each case.
As to `COc1cc2nc(N(C)CCCNC(=O)C3CCCO3)nc(N)c2cc1OC` (stereo not given) [ALFUZOSIN HYDROCHLORIDE], the IC50 in assay [4] was over 133 µM.
On to `Cc1ccc(C)c(OCCCC(C)(C)C(=O)O)c1` [GEMFIBROZIL], for which the IC50 in assay [1], in assay [3] and in assay [4] was over 133 µM in each case.
On to `O=c1n(CCCN2CCN(c3cccc(Cl)c3)CC2)nc2ccccn12` [TRAZODONE], for which the IC50 in assay [1], in assay [3] and in assay [4] was over 133 µM each time.
On to `C[C@](N)(Cc1ccc(O)c(O)c1)C(=O)O`, for which the results for the IC50 in assay [1], in assay [3] and in assay [4] were 41.2 µM, 8.08 µM and over 133 µM, respectively.
On to `Nc1c(CC(=O)O)cccc1C(=O)c1ccc(Br)cc1` [BROMFENAC], for which the IC50 in assay [1], in assay [3] and in assay [4] was over 133 µM in each case.
In the case of `Sc1ncnc2nc[nH]c12` [MERCAPTOPURINE ANHYDROUS], in assay [4], the IC50 was over 133 µM.
For `C[C@@H](O)[C@H]1C(=O)N2C(C(=O)O)=C(SCCN=CN)C[C@H]12`, the IC50 in assay [4] was over 133 µM.
Regarding `CCCCNc1cc(C(=O)O)cc(S(N)(=O)=O)c1Oc1ccccc1` [BUMETANIDE], the IC50 in assay [1], in assay [3] and in assay [4] was over 133 µM in each case.
`CC(C)(Oc1ccc(C2CC2(Cl)Cl)cc1)C(=O)O` (stereo not given) [CIPROFIBRATE]: the IC50 in assay [1], in assay [3] and in assay [4] was over 133 µM each time.
For `CC(C)(S)[C@@H](N)C(=O)O` [PENICILLAMINE], in assay [4], the IC50 was over 133 µM.
As for `CCOC(=O)[C@H](CCc1ccccc1)N[C@@H](C)C(=O)N1Cc2ccccc2C[C@H]1C(=O)O`, the IC50 in assay [1] is over 133 µM; in assay [3], over 133 µM; in assay [4], 94 µM.
Regarding `CC(=O)Nc1ccc(S(=O)(=O)Nc2ccc([N+](=O)[O-])cc2)cc1`, the IC50 in assay [1], in assay [3] and in assay [4] was over 133 µM throughout.
On to `COc1c(O[C@@H]2O[C@H](CO)[C@@H](O)[C@H](O)[C@H]2O)cc2c(c1OC)-c1ccc(SC)c(=O)cc1[C@@H](NC(C)=O)CC2` [THIOCOLCHICOSIDE], for which the IC50 in assay [4] was over 133 µM.
Regarding `COCCCOc1cc(C[C@@H](C[C@H](N)[C@@H](O)C[C@H](C(=O)NCC(C)(C)C(N)=O)C(C)C)C(C)C)ccc1OC` [ALISKIREN FUMARATE], the IC50 in assay [4] is over 133 µM.
Take `O=c1n(CCCN2CCN(c3cccc(Cl)c3)CC2)nc2ccccn12` [TRAZODONE HYDROCHLORIDE]: the IC50 in assay [1], in assay [3] and in assay [4] was over 133 µM throughout.
For the compound `CCCCCC[C@H]1C(=O)O[C@H](C)[C@H](NC(=O)c2cccc(NC=O)c2O)C(=O)O[C@@H](C)[C@@H]1OC(=O)CC(C)C` [ANTIMYCIN A], the IC50 in assay [1] was over 133 µM; in assay [3] it was over 133 µM; in assay [4], 59.6 µM.
On to `O=C(O)[C@H]1/C(=C/CO)O[C@@H]2CC(=O)N21` [CLAVULANATE POTASSIUM], for which the IC50 in assay [4] is over 133 µM.
As for `Cc1cnc(NC(=O)C2=C(O)c3ccccc3S(=O)(=O)N2C)s1` [MELOXICAM], the IC50 in assay [1] is over 133 µM; in assay [3] it was over 133 µM; in assay [4] it was 77.5 µM.
In the case of `CN1C(=O)CN=C(c2ccccc2)c2cc(Cl)ccc21` [DIAZEPAM], the IC50 in assay [1], in assay [3] and in assay [4] was over 133 µM in each case.
For `OC[C@H]1O[C@@H](n2cnc3c2NC=NC[C@H]3O)C[C@@H]1O` [PENTOSTATIN], the 50% inhibitory concentration (IC50) in assay [4] is over 133 µM.
As to `CCCc1nn(C)c2c(=O)[nH]c(-c3cc(S(=O)(=O)N4CCN(C)CC4)ccc3OCC)nc12` [SILDENAFIL CITRATE], the IC50 in assay [1] is over 133 µM; in assay [2], over 133 µM; in assay [4] it was 132 µM.
As for `CC1=C(CC(=O)O)c2cc(F)ccc2/C1=C\c1ccc([S+](C)[O-])cc1` (stereo not given), the IC50 in assay [1], in assay [3] and in assay [4] was over 133 µM each time.
Turning to `N#Cc1ccc(C(c2ccc(C#N)cc2)n2cncn2)cc1` [LETROZOLE], the IC50 in assay [4] is over 133 µM.
Turning to `N#C/C(=C1/SCC(c2ccccc2Cl)S1)n1ccnc1` (stereo not given) [LANOCONAZOLE], the IC50 in assay [1] was over 133 µM; in assay [3], over 133 µM; in assay [4], 9.65 µM.
On to `Nc1nnc(-c2cccc(Cl)c2Cl)c(N)n1` [LAMOTRIGINE], for which, in assay [4], the IC50 is over 133 µM.
Regarding BIVALIRUDIN, the IC50 in assay [2], in assay [3] and in assay [4] was over 133 µM each time.
With `CCOC(=O)[C@H](CCc1ccccc1)N[C@@H](C)C(=O)N1[C@H](C(=O)O)C[C@H]2CCCC[C@@H]21` [TRANDOLAPRIL], the IC50 in assay [1], in assay [3] and in assay [4] was over 133 µM each time.
For the compound `CCOC(=O)C1=C(C)NC(C)=C(C(=O)OC)C1c1cccc([N+](=O)[O-])c1` (stereo not given) [NITRENDIPINE], the half-maximal inhibitory concentration (IC50) was over 133 µM in assay [1], over 133 µM in assay [3] and 22.5 µM in assay [4].
Turning to `O=C(O)COC(=O)Cc1ccccc1Nc1c(Cl)cccc1Cl` [ACECLOFENAC], the IC50 in assay [1] is over 133 µM; in assay [3], over 133 µM; in assay [4] it was 105 µM.
For `COc1cc2nc(N3CCN(C(=O)c4ccco4)CC3)nc(N)c2cc1OC` [PRAZOSIN], the IC50 in assay [1] was over 133 µM; in assay [3], 12.5 µM; in assay [4], over 133 µM.
Turning to `Cn1cnc([N+](=O)[O-])c1Sc1ncnc2nc[nH]c12` [AZATHIOPRINE], the IC50 in assay [1], in assay [2] and in assay [3] was over 133 µM throughout.
On to `CC[C@H]1OC(=O)[C@H](C)[C@@H](O[C@H]2C[C@@](C)(OC)[C@@H](O)[C@H](C)O2)[C@H](C)[C@@H](O[C@@H]2O[C@H](C)C[C@H](N(C)C)[C@H]2O)[C@](C)(O)C[C@@H](C)C(=O)[C@H](C)[C@@H](O)[C@]1(C)O` [ERYTHROMYCIN], for which the IC50 in assay [1], in assay [2] and in assay [3] was over 133 µM in each case.
`Cc1cc(C2CCCCC2)n(O)c(=O)c1` [CICLOPIROX]: the IC50 in assay [1], in assay [3] and in assay [4] was over 133 µM throughout.
For `CC(=O)[C@H]1[C@H](C#N)C[C@H]2[C@@H]3CC=C4C[C@@H](O)CC[C@]4(C)[C@H]3CC[C@@]21C` [PREGNENOLONE CARBONITRILE], the IC50 in assay [1], in assay [3] and in assay [4] was over 133 µM each time.
With `COc1cccc([C@]2(O)CCCC[C@H]2CN(C)C)c1`, the IC50 in assay [4] was over 133 µM.
On to `OC(Cn1cncn1)(Cn1cncn1)c1ccc(F)cc1F` [FLUCONAZOLE], for which the IC50 in assay [1], in assay [2] and in assay [3] was over 133 µM throughout.
As for `CCN(CC)CCCC(C)Nc1ccnc2cc(Cl)ccc12` (stereo not given) [CHLOROQUINE], the IC50 in assay [1] is over 133 µM; in assay [2], over 133 µM; in assay [3], 104 µM.
Regarding `CCN(CC)CC(=O)Nc1c(C)cccc1C` [LIDOCAINE], the IC50 in assay [1], in assay [2] and in assay [3] was over 133 µM throughout.
